Experimental data: patent publication EP0189679A1, “Novel crystalline form of 1-benzhydryl-4-allylpiperazine dihydrochloride and method for the production thereof” (SO "PHARMACHIM", priority 1984, dated 1986)

Key:
[1] = Initial rate of dissolution of pressed discs in 0.1 N hydrochloric acid; assay type: physicochemical; details: pressed disc 200 mg substance + 100 mg polyvinylchloride, 100 ml 0.1 N hydrochloric acid, 25°C, linear part between first and fifth minutes
Method: In Table 4 which follows, there are compared the rates of dissolution of the. three crystalline forms. Investigations were carried out with pressed discs made up of 200 mg of the test substance and 100 mg of polyvinylchloride pressed at a pressure of 10 tonnes for 5 minutes in a plane around the disc using a pill making matrix with a diameter of 13 mm. The discs thus obtained are immersed by means of a special holding device in 100 ml of 0.1 N hydrochloric acid solution. Stirring was carried out by means of an electromagnetic agitator. The testing temperature employed was 25°C. The initial rates of dissolution are determined from the dissolution curves for the pressed discs, using the linear part between the first and fifth minutes. Comparison of data for the initial rate of dissolution of the three crystalline forms indicate that crystal form "A" has an initial rate of dissolution which is 3 to 4 times greater than that of the other forms.

[2] = Solubility profile / rate of dissolution of pulverous specimens in water; assay type: physicochemical; details: 25°C
Method: The respective solubilities of the three crystalline modifications have also been studied. The rate of dissolution of pulverous specimens in water was determined in the following manner: a finely ground powder formed from the crystalline form under study in a quantity twice as great as necessary to produce a saturated solution in water is placed in a receptacle containing 100 ml of distilled water. The suspension is stirred using a magnetic agitator (600 r.p.m.) at a temperature of 25°C. At predetermined time intervals, samples are taken and, after filtering through a Milipor filter ([…]) they are diluted to the necessary volume for performing a quantitative determination. For this purpose, an absorption maximum at 250 nm is used.

[3] = Stability study of the solid forms under ambient storage conditions in light-permeable glass jars; assay type: physicochemical; details: ambient storage in glass jars permitting passage of light; over one year and after three years
Text: More exhaustive stability studies have been performed under ambient storage conditions in glass jars which permit the passage of light therethrough. […] The three crystalline forms are chemically and physically stable under normal storage conditions.

[4] = Hygroscopicity study of ground samples in a humidity chamber; assay type: physicochemical; details: 90% humidity, 25°C, period of 30 days
Method: Hygroscopicity studies have been carried out by placing samples of the three crystalline forms with the same particle size resulting from grinding of samples of the three crystalline forms in a vibratory mill. The studies take place in a chamber with 90% humidity and at a temperature of 25°C. At intervals, samples are taken in order to determine their water content and their crystalline structure by means of the methods described hereinabove. […] They are not hygroscopic and are physically stable under the test conditions..

[5] = Stability in aqueous solution (injectible compositions) of different crystalline forms; assay type: physicochemical; details: dihydrochloride; for Content of active substance in the solution in %, In storing 1 year: stored 1 year; for Content of active substance in the solution in %, In storing 3 years: stored 3 years
Text: Table 3 indicates comparative data concerning the stability of injectible forms of pharmaceutical compositions containing either crystalline form "A" according to the present invention and form "B" (aligerone prepared according to the method described in the aforementioned references to Zikolova and Ninov).

[6] = test system: blood vessels of the brain; details: from Zikolova and Ninov and Drugs of the Future 1980, 5(1); cited from earlier work
[7] = powder in 100 ml distilled water, 600 r.p.m.

C=CCN1CCN(C(c2ccccc2)c2ccccc2)CC1.Cl.Cl.O.O [Crystalline hydrate, 1-benzhydryl-4-allylpiperazine dihydrochloride dihydrate, reference compound]
Initial rate of dissolving [1]: 0.333 mg/mL/min
time until solubility reaches a constant value [2, 7]: 60 min

C=CCN1CCN(C(c2ccccc2)c2ccccc2)CC1.Cl.Cl [Form "A", 1-benzhydryl-4-allyl-piperazine dihydrochloride]
time to attain maximum solubility [2, 7]: ≤ 2 min
time until solubility reaches a constant value ([2]; powder in 100 ml distilled water, 600 r.p.m., listed as form "A", dihydrochloride): 10 min
solubility in comparison with the other crystalline forms ([2]; water, compared with anhydrous form "B" and the crystalline hydrate): higher equilibrium solubility
chemical and physical stability on storage [3]: stable on storage under normal conditions
hygroscopicity (water absorption) [4]: non-hygroscopic
Content of active substance in the solution in %, Initial concentration ([5]; listed as A): 1.251%
Content of active substance in the solution in %, In storing 1 year ([5]; listed as A): 1.250%
Content of active substance in the solution in %, In storing 3 years ([5]; listed as A): 1.198%

C=CCN1CCN(C(c2ccccc2)c2ccccc2)CC1.Cl.Cl [Form "B", 1-benzhydryl-4-allylpiperazine dihydrochloride]
Initial rate of dissolving ([1]; listed as B, dihydrochloride): 0.467 mg/mL/min
time until solubility reaches a constant value ([2]; powder in 100 ml distilled water, 600 r.p.m., listed as form "B", dihydrochloride): 60 min
Content of active substance in the solution in %, Initial concentration ([5]; listed as B): 1.255%
Content of active substance in the solution in %, In storing 1 year ([5]; listed as B): 1.105%
Content of active substance in the solution in %, In storing 3 years ([5]; listed as B): 0.925%

C=CCN1CCN(C(c2ccccc2)c2ccccc2)CC1.Cl.Cl [aligerone, 1-benzhydryl-4-allyl-piperazine dihydrochloride]
effect on blood circulation and oxygen concentration of the brain compared with cinnarizine [6]: stronger than that of cinnarizine
